Experimental data as given in patent publication US7691889B2, “Antimycobacterial compounds” (Lupin Limited, priority 2002, dated 2010).
Values after ≈ are worked out from the molar mass of the structure shown. Read-outs that look alike come from different tables or passages of the source.

Legend:
[1] = test system: M. tuberculosis 27294; test: In vitro agar dilution assay (MIC), reference strain; type: cell-based, Mycobacterium tuberculosis; settings: for MIC against M. tuberculosis 27294: Middlebrook 7H10; for MIC: Mycobacterium tuberculosis, 27294, Middlebrook 7H10, read-out: MIC against M. tuberculosis 27294
[2] = test system: M. tuberculosis clinical isolates, sensitive; test: microbe, parasite or virus in culture; type: cell-based, Mycobacterium tuberculosis; settings: for MIC against Clinical isolates Sensitive: Table I, agar dilution; for MIC: Mycobacterium tuberculosis
[3] = test system: M. fortuitum; test: In vitro agar dilution assay (MIC), M. fortuitum; type: cell-based; settings: Table II
[4] = test system: M. kansai; test: In vitro agar dilution assay (MIC), M. kansai; type: cell-based; settings: Table II
[5] = Acute toxicity in mice; type: in vivo; settings: P. O.
[6] = test system: M. tuberculosis ATCC 27294 infection; test: Murine model of pulmonary tuberculosis; settings: for Mean Log10 No. of CFU Lung / Mean Log10 No. of CFU Spleen: 5 day/week for 4 weeks, mice; for Mean Log10 No. of reduction Lung / Mean Log10 No. of reduction Spleen: difference from early controls
[7] = read-out: MIC against Clinical isolates Sensitive

Compound | MIC against M. tuberculosis 27294 [1] | MIC against Clinical isolates Sensitive [2] | MIC [1] | MIC [2, 7] | further results
O=C(CCC(=O)c1ccc2ccccc2c1)NC[C@H]1CN(c2ccc([N+]3([O-])CCOCC3)c(F)c2)C(=O)O1 [Compound 30, (S)-N-[[3-(3-fluoro-4-morpholinylphenyl)-2-oxo-5-oxazolidinyl]methyl]-4-(4-2-naphthyl)-4-oxobutanamide-N-oxide] | 0.5 µg/mL (≈ 0.959 µM) | 0.5 µg/mL (≈ 0.959 µM) |  |  | MIC M. tuberculosis Sensitive ([2]; Table II): 0.50 µg/mL (≈ 0.959 µM); MIC M. fortuitum [3]: >16.0 µg/mL; MIC M. kansai [4]: 8.0 µg/mL (≈ 15.3 µM); LD0 (acute toxicity) [5]: > 1000 mg/kg; Mean Log10 No. of CFU Lung ([6]; 12.5 mg/kg by gavage): 4.34; Mean Log10 No. of CFU Spleen ([6]; 12.5 mg/kg by gavage): 4.30; Mean Log10 No. of reduction Lung ([6]; 12.5 mg/kg): 0.20; Mean Log10 No. of reduction Spleen ([6]; 12.5 mg/kg): 0.26; Mean Log10 No. of CFU Lung ([6]; 25 mg/kg by gavage): 2.21; Mean Log10 No. of CFU Spleen ([6]; 25 mg/kg by gavage): 2.13; Mean Log10 No. of reduction Lung ([6]; 25 mg/kg): 2.30; Mean Log10 No. of reduction Spleen ([6]; 25 mg/kg): 2.49; Mean Log10 No. of CFU Lung ([6]; 50 mg/kg by gavage): 2.12; Mean Log10 No. of CFU Spleen ([6]; 50 mg/kg by gavage): 2.09; Mean Log10 No. of reduction Lung ([6]; 50 mg/kg): 2.40; Mean Log10 No. of reduction Spleen ([6]; 50 mg/kg): 2.53
COc1ccc(C(=O)CCC(=O)NC[C@H]2CN(c3ccc(N4CCCCC4)c(F)c3)C(=O)O2)cc1 [Compound 35, (S)-N-[[3-(3-fluoro-4-piperidylphenyl)-2-oxo-5-oxazolidinyl]methyl]-4-(4-methoxyphenyl)-4-oxobutanamide] | 4 µg/mL (≈ 8.27 µM) | 2 to 4 µg/mL |  |  | 
O=C(CCC(=O)c1ccc(Cl)cc1)NC[C@H]1CN(c2ccc(N3CCCCC3)c(F)c2)C(=O)O1 [Compound 36, (S)-N-[[3-(3-fluoro-4-piperidylphenyl)-2-oxo-5-oxazolidinyl]methyl]-4-(4-chlorophenyl)-4-oxobutanamide] | 4 µg/mL (≈ 8.2 µM) | 4 to 8 µg/mL |  |  | 
O=C(CCC(=O)c1ccc(Cl)cc1)NC[C@H]1CN(c2ccc(-n3nnc4ccccc43)c(F)c2)C(=O)O1 [Compound 39, (S)-N-[[3-(3-fluoro-4-benzotriazolylphenyl)-2-oxo-5-oxazolidinyl]methyl]-4-(4-chlorophenyl)-4-oxobutanamide] | 2 µg/mL (≈ 3.83 µM) | 2 to 4 µg/mL |  |  | 
Cc1ccc(C(=O)CCC(=O)NC[C@H]2CN(c3ccc(-c4nc[nH]n4)c(F)c3)C(=O)O2)c(C)c1 [Compound 43, (S)-N-[[3-(3-fluoro-4-(1,2,4-triazolyl)phenyl)-2-oxo-5-oxazolidinyl]methyl]-4-(2,4-dimethylphenyl)-4-oxobutanamide] |  |  | 1 µg/mL (≈ 2.15 µM) | 0.5 to 1 µg/mL (≈ 1.07 to 2.15 µM) | 
CSc1ccc(C(=O)CCC(=O)NC[C@H]2CN(c3ccc(-n4cncn4)c(F)c3)C(=O)O2)cc1 [Compound 44, (S)-N-[[3-(3-fluoro-4-(1,2,4-triazolyl)phenyl)-2-oxo-5-oxazolidinyl]methyl]-4-oxo-4-(4-thiomethylphenyl)butanamide] | 1 µg/mL (≈ 2.07 µM) | 0.5 to 2 µg/mL |  |  | 
CCCc1ccc(C(=O)CCC(=O)NC[C@H]2CN(c3ccc(-c4nc[nH]n4)c(F)c3)C(=O)O2)c(C)c1 [Compound 46, (S)-N-[[3-(3-fluoro-4-(1,2,4-triazolyl)phenyl)-2-oxo-5-oxazolidinyl]methyl]-4-(2′-methyl-4-propylphenyl)-4-oxobutanamide] |  |  | 2 µg/mL (≈ 4.05 µM) | 2 to 4 µg/mL (≈ 4.05 to 8.1 µM) | 
O=C(CCC(=O)c1cccs1)NC[C@H]1CN(c2ccc(-c3nc[nH]n3)c(F)c2)C(=O)O1 [Compound 47, (S)-N-[[3-(3-fluoro-4-(1,2,4-triazolyl)phenyl)-2-oxo-5-oxazolidinyl]methyl]-4-oxo-4-(2-thienyl)butanamide] |  |  | 1 µg/mL (≈ 2.25 µM) | 1 to 2 µg/mL (≈ 2.25 to 4.51 µM) | 
O=C(CCC(=O)c1ccc2ccccc2c1)NC[C@H]1CN(c2ccc(-c3nc[nH]n3)c(F)c2)C(=O)O1 [Compound 48, (S)-N-[[3-(3-fluoro-4-(1,2,4-triazolyl)phenyl)-2-oxo-5-oxazolidinyl]methyl]-4-(2-naphthyl)-4-oxobutanamide] |  |  | 2 µg/mL (≈ 4.1 µM) | 2 to 4 µg/mL (≈ 4.1 to 8.21 µM) | 
O=C(CCC(=O)c1ccc(Cl)cc1)NC[C@H]1CN(c2ccc(-c3nc[nH]n3)c(F)c2)C(=O)O1 [Compound 49, (S)-N-[[3-(3-fluoro-4-(1,2,4-triazolyl)phenyl)-2-oxo-5-oxazolidinyl]methyl]-4-(4-chlorophenyl)-4-oxobutanamide] |  |  | 4 µg/mL (≈ 8.48 µM) | 4 to 16 µg/mL (≈ 8.48 to 33.9 µM) | 
CC(=O)Nc1ccc(C(=O)CCC(=O)NC[C@H]2CN(c3ccc(-c4nc[nH]n4)c(F)c3)C(=O)O2)cc1 [Compound 50, (S)-N-[[3-(3-fluoro-4-(1,2,4-triazolyl)phenyl)-2-oxo-5-oxazolidinyl]methyl]-4-(4-acetamidophenyl)-4-oxobutanamide] |  |  | 2 µg/mL (≈ 4.04 µM) | 2 to 4 µg/mL (≈ 4.04 to 8.09 µM) | 
O=C(CCC(=O)c1cccs1)NC[C@H]1CN(c2ccc(N3CCCCC3)c(F)c2)C(=O)O1 [Compound 52, (S)-N-[[3-(3-fluoro-4-piperidylphenyl)-2-oxo-5-oxazolidinyl]methyl]-4-oxo-4-(2-thienyl)butanamide] | 2 µg/mL (≈ 4.35 µM) | 2 µg/mL (≈ 4.35 µM) |  |  | 
CC(=O)Nc1ccc(C(=O)CCC(=O)NC[C@H]2CN(c3ccc(N4CCCCC4)c(F)c3)C(=O)O2)cc1 [Compound 54, (S)-N-[[3-(3-fluoro-4-piperidylphenyl)-2-oxo-5-oxazolidinyl]methyl]-4-(4-acetamidophenyl)-4-oxobutanamide] | 8 µg/mL (≈ 15.7 µM) | 8 to 16 µg/mL |  |  | 
O=C(C=CC(=O)c1ccccc1)NC[C@H]1CN(c2ccc(N3CCCCC3)c(F)c2)C(=O)O1 [Compound 55, (S)-N-[[3-(3-fluoro-4-piperidylphenyl)-2-oxo-5-oxazolidinyl]methyl]-4-oxo-4-phenylbut-2-enamide] | >16 µg/mL | >16 µg/mL |  |  | 
CSc1ccc(C(=O)CCC(=O)NC[C@H]2CN(c3ccc(N4CCCC4)c(F)c3)C(=O)O2)cc1 [Compound 56, (S)-N-[[3-(3-fluoro-4-pyrrolidinylphenyl)-2-oxo-5-oxazolidinyl]methyl]-4-oxo-4-(4-thiomethylphenyl)butanamide] | >16 µg/mL | >16 µg/mL |  |  | 
NNC(=O)c1ccncc1 [Isoniazid, reference compound] |  |  | 0.25 µg/mL (≈ 1.82 µM) | 0.12 to 0.25 µg/mL (≈ 0.875 to 1.82 µM) | MIC ([2]; read-out: MIC M. tuberculosis Sensitive): 0.25 µg/mL (≈ 1.82 µM); MIC ([3]; Mycolicibacterium fortuitum): > 16 µg/mL; MIC [4]: > 16 µg/mL; Mean Log10 No. of CFU Lung ([6]; 12.5 mg/kg by gavage): 2.95; Mean Log10 No. of CFU Spleen ([6]; 12.5 mg/kg by gavage): 2.94; Mean Log10 No. of reduction Lung ([6]; 12.5 mg/kg): 1.57; Mean Log10 No. of reduction Spleen ([6]; 12.5 mg/kg): 1.68; Mean Log10 No. of CFU Lung ([6]; 25 mg/kg by gavage): 2.11; Mean Log10 No. of CFU Spleen ([6]; 25 mg/kg by gavage): 2.11; Mean Log10 No. of reduction Lung ([6]; 25 mg/kg): 2.41; Mean Log10 No. of reduction Spleen ([6]; 25 mg/kg): 2.51; Mean Log10 No. of CFU Lung ([6]; 50 mg/kg by gavage): 2.03; Mean Log10 No. of CFU Spleen ([6]; 50 mg/kg by gavage): 1.92; Mean Log10 No. of reduction Lung ([6]; 50 mg/kg): 2.49; Mean Log10 No. of reduction Spleen ([6]; 50 mg/kg): 2.70
CC(=O)NC[C@H]1CN(c2ccc(N3CCOCC3)c(F)c2)C(=O)O1 [Linezolid, (S)-N-[[3-[3-fluoro-4-(4-morpholinyl)phenyl]-2-oxo-5-oxazolidin-yl]methyl]-acetamide, reference compound] |  |  | 0.5 µg/mL (≈ 1.48 µM) | 0.25 to 0.5 µg/mL (≈ 0.741 to 1.48 µM) | 
(S)-N-[[3-(3-fluoro-4-(1,2,4-triazolyl)phenyl)-2-oxo-5-oxazolidinyl]methyl]-4-(2′,2′-dimethyl-4-ethylphenyl)-4-oxobutanamide [Compound 45] | 2.0 µg/mL | 2 to 4 µg/mL |  |  | 
(S)-N-[[3-(3-fluoro-4-(1,2,4-triazolyl)phenyl)-2-oxo-5-oxazolidinyl]methyl]-4-oxo-4-phenylbutanamide [Compound 40] | 1 µg/mL | 1 to 2 µg/mL |  |  | 
(S)-N-[[3-(3-fluoro-4-morpholinylphenyl)-2-oxo-5-oxazolidinyl]methyl]-4-[4-(2′,2′-dimethyl-4-ethylphenyl)-4-oxobutanamide [Compound 20] | 1 µg/mL | 1 to 2 µg/mL |  |  | 
